Legend:
[1] = system: MES, PTZ and amygdala-kindling seizure models; settings: systemic PTZ; cited from earlier work
[2] = system: partial, tonic-clonic and generalized seizures; settings: clinically; cited from earlier work
PTZ seizures = settings: prior studies; cited from earlier work
APPL/S mice [3] = assay: choline acetyltransferase immunostaining of cholinergic neurites in basal forebrain; assay type: in vivo, mouse; settings: basal forebrain sections
Protocol: (§1) FIG. 30A is a photomicrograph of APP immunolabeling for dystrophic neurites (left) and Thioflavin S staining for amyloid plaques (right) in hippocampus of APPL/S mice given vehicle or LM11A-31 as indicated. Scale bars=25 μm. FIG. 30B is a photomicrograph of choline acetyltransferase-immunostained basal forebrain sections. Treatment of APPL/S mice with LM11A-31 was associated with increased length, volume, and branching of cholinergic neurites. […] Statistical significance was determined using ANOVA and post-hoc Student-Neuman-Keuls testing.

[4] = after oral administration; cited from earlier work
APPL/S mice [5] = assay: APP immunolabeling for dystrophic neurites, Thioflavin S staining for amyloid plaques in hippocampus; assay type: in vivo; settings: transgenic mouse model of AD, APPL/S mice given vehicle or LM11A-31
Protocol: as §1

APPL/S mice [6] = assay: novel object recognition; assay type: in vivo, mouse
[7] = system: APPL/S transgenic AD mouse model; settings: cited from earlier work
APP/PS1 mice [8] = assay: LTP / synaptic function in hippocampal slice preparations from AD model mice; set-up: species or system mouse; settings: hippocampus
[9] = system: amyloid-P-induced neurodegenerative mechanisms; settings: previous in vitro studies; cited from earlier work
APPL/S mice [10] = settings: APPL/S transgenic AD mouse model; cited from earlier work
APPL/S mice [11] = settings: APPL/S transgenic AD mouse model; cited from earlier work; remark: listed apart in the source
APP/PS1 mice [12] = settings: slices derived from AD model mice; cited from earlier work
APPL/S mice [13] = settings: basal forebrain and hippocampus; cited from earlier work

For `O=C1Nc2ccc(Cl)cc2C(c2ccccc2Cl)=NC1O` (stereo not drawn) [lorazepam], the “efficacy in conventional epilepsy models” value [1] is listed as “efficacy in all three conventional models” and the “clinical efficacy by seizure type” value [2] is listed as “efficacy in partial and generalized tonic-clonic seizures”.

For `CC[C@@H](C(N)=O)N1CCCC1=O` [LEV, levetiracetam], the “efficacy in conventional epilepsy models” value [1] is listed as “efficacy only in amygdala-kindling” and the “clinical efficacy by seizure type” value [2] is listed as “efficacy for partial, tonic-clonic and non-convulsive generalized seizures”.

For `CC[C@@H](CO)NC(=O)[C@@H]1C=C2c3cccc4c3c(cn4C)C[C@H]2N(C)C1` [methylsergide], the “effect on the beneficial effect of ANT electrical stimulation to raise threshold for PTZ seizures” value (PTZ seizures) is listed as “largely blocked”.

In the case of `O=C1NC(=O)C(c2ccccc2)(c2ccccc2)N1` [PHT, phenytoin], the “clinical efficacy by seizure type” value [2] is given as “efficacy in partial and generalized tonic-clonic seizures”.

In the case of `CC[C@H](C)[C@H](N)C(=O)NCCN1CCOCC1` [LM11A-31], the “length, volume, and branching of cholinergic neurites” value (APPL/S mice [3]) is given as “increased”, the brain concentrations [4] is given as “reach brain concentrations known to provide neuroprotection in vitro” and the “crossing of the blood brain barrier” value [4] is given as “cross the blood brain barrier”. For the same compound, the “dystrophic neurites and amyloid plaque formation in the hippocampus” value (APPL/S mice [5]) was “rescued significantly”, the object recognition deficits (APPL/S mice [6]) was “prevented” and the “deficits in Y-maze performance” value [7] was “prevented deficits”. The LTP (APP/PS1 mice [8]) was “normalizes”, the amyloid-P-induced neurodegenerative mechanisms [9] was “prevented” and the amyloid levels (APPL/S mice [10]) was “without affecting”. For the same compound, the “deficits in novel object recognition” value (APPL/S mice [11]) was “prevented deficits”, the “synaptic impairment in hippocampal slice preparations” value (APP/PS1 mice [12]) was “reversed” and the cholinergic neuritic dystrophy (APPL/S mice [13]) was “prevented”.

From US11672466B2, “System and method for modeling brain dynamics in normal and diseased states” (THE REGENTS OF THE UNIVERSITY OF CALIFORNIA, priority 2013, dated 2023)
